Laboratory results from PMC8151276, “An Integrated Approach toward NanoBRET Tracers for Analysis of GPCR Ligand Engagement” (Molecules, 2021).

How the values were obtained:
Format in all cases: binding
[1] = biological target: T1, P2RY4 (Homo sapiens, UniProt P51582); assay: NanoBRET screen HiBiT-P2RY4 in HEK293
T1 construct: purchased Promega (in-house HiBiT-GPCR construct library, NanoBRET)
Description: (§1) Each tracer candidate was screened across the entire library of HiBiT-GPCR constructs using NanoBRET as the detection modality. As depicted in Figure 4A, the specificity of interactions was evaluated through decrease in BRET due to competitive displacement of a bound tracer by excess parental compound. Each tracer was analyzed for binding to each HiBiT-GPCR fusion in the absence and in the presence of competing parental compound. Briefly, HEK293 cells were transfected with HiBiT-GPCR constructs diluted into promoterless DNA to reduce expression and maximize translocation to the cell surface. Each tracer candidate was then screened at concentrations of 1 μM and 0.1 μM across cells expressing these fusions. Cells were treated for 1.5 h with tracer either alone or in the presence of 20 μM competing parental compound (i.e., control). BRET was measured upon addition of purified LgBiT and subsequent complementation with HiBiT genetically fused to a GPCR. The specificity of interactions was assessed through a decrease in BRET signal due to competitive displacement of the bound tracer. To further gauge the robustness of these interactions, the fold response over the control (i.e., BRETtracer/BRETcontrol) was calculated. We chose a 1.5-fold response, which translates to ≥7-fold signal over noise as the minimal threshold required to score an interaction as positive. […]. Below we highlight the screening results obtained for our exemplary fluorescent tracers based on Clozapine, Amitriptyline and AZD1283.
(§2) HiBiT-GPCR DNA constructs were diluted in 10 mM Tris pH 8 to a final concentration of 0.01 μg/μL, arrayed in 96-well plates and stored at −20 °C. For transfection, HEK293 cells were suspended in Opti-MEM (without phenol red) supplemented with 2% fetal bovine serum (Seradigm) and 100 units/mL penicillin–streptomycin (Gibco) at a final concentration of 220,000 cells/mL and dispensed into white 96-well plates at 90 μL/well. Subsequent transfections and screens were carried using an Agilent Bravo Automated Liquid Handling Platform. First, the 96-well HiBiT DNA arrays were diluted 25-fold in Opti-MEM (without serum or phenol red) to a final concentration of 0.0004 μg/μL and 20 μL of the diluted DNAs were transferred into new 96-well plates. Next, promoterless carrier DNA (1 μg/μL) was diluted 25-fold (0.04 μg/μL) and then dispensed into the diluted arrays at 20 μL/well. Following brief mixing, Viafect transfection reagent (Promega) diluted 16-fold into Opti-MEM was dispensed into the plates at 40 μL/well. After mixing by pipetting, plates were incubated for 10 min on the pipetting station deck. The DNA-transfection reagent complexes were then added to plates containing cells. To facilitate the screen, 10 μL of DNA-transfection reagent complexes were added in duplicates to the top 4 and bottom 4 rows, resulting in two identical 48-well arrays per plate. Plates with transfected cells were incubated for 18–20 h at 37 °C/5% CO2. A screen of each tracer across the entire library using two different concentrations requires duplicate plates of transfected cells. Depending on the number of tracers being screened, transfections can be scaled up using the same ratios. The next day, for each tracer, four 20× screening solutions in tracer dilution buffer (Promega) were prepared: two duplicates at final concentration of 20 μM and two duplicates at a final concentration of 2 μM. A competing unmodified compound was added to one of each duplicate at a final concentration of 400 μM. The four resulting solutions were diluted 4-fold in Opti-MEM without serum or phenol red to generate 5× solutions (5 µM and 0.5 µM tracer +/− 100 μM competing compound). To screen the library, a BioTek MultiFlo FX liquid dispenser was used to dispense 22.5 µL of tracer solution to the top 4 rows and 22.5 µL tracer + competing compound solution to the 4 bottom rows. Plates were briefly mixed on an orbital shaker and incubated for 1.5 h at room temperature. […]

[2] = biological target: T2, AGTR1 (Homo sapiens, UniProt P30556); assay: NanoBRET screen HiBiT-AGTR1 in HEK293
T2 construct: purchased Promega (in-house HiBiT-GPCR construct library, NanoBRET)
T2 sequence (P30556 1-359): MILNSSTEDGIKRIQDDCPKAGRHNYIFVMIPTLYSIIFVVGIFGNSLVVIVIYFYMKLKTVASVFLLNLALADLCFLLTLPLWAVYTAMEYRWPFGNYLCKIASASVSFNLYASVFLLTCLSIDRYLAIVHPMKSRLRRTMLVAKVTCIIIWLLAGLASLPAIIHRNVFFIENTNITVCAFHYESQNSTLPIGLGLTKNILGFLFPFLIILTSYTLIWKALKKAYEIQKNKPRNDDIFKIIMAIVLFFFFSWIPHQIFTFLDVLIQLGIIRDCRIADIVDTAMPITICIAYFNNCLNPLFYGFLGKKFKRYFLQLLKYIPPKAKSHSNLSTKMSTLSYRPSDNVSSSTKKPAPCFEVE
Description: as §1, §2

[3] = biological target: T3, PTGDR2 (Homo sapiens, UniProt Q9Y5Y4); assay: NanoBRET screen HiBiT-PTGDR2 in HEK293
T3 construct: purchased Promega (in-house HiBiT-GPCR construct library, NanoBRET)
T3 sequence (Q9Y5Y4 1-395): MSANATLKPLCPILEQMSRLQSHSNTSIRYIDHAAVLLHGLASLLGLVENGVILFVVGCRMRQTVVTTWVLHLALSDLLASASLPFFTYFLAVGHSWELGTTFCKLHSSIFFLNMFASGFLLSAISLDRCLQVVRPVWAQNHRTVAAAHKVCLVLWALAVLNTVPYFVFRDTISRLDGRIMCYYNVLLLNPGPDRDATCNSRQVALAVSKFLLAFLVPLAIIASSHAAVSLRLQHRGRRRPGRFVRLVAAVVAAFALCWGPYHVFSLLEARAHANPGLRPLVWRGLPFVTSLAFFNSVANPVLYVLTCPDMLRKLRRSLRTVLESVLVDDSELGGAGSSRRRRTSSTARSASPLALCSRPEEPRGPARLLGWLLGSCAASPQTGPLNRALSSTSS
Description: as §1, §2

[4] = biological target: T4, CCR2 (Homo sapiens, UniProt P41597); assay: NanoBRET screen HiBiT-CCR2 in HEK293
T4 construct: purchased Promega (in-house HiBiT-GPCR construct library, NanoBRET)
Description: as §1, §2

[5] = biological target: T5, MCHR1 (Homo sapiens, UniProt Q99705); assay: NanoBRET screen HiBiT-MCHR1 in HEK293
T5 construct: purchased Promega (in-house HiBiT-GPCR construct library, NanoBRET)
Description: as §1, §2

[6] = biological target: T6, RXFP2 (Homo sapiens, UniProt Q8WXD0); assay: NanoBRET screen HiBiT-RXFP2 in HEK293
T6 construct: purchased Promega (in-house HiBiT-GPCR construct library, NanoBRET)
Description: as §1, §2

[7] = biological target: T7, SSTR5 (Homo sapiens, UniProt P35346); assay: NanoBRET screen HiBiT-SSTR5 in HEK293
T7 construct: purchased Promega (in-house HiBiT-GPCR construct library, NanoBRET)
Description: as §1, §2

[8] = tracer at 0.1μM, listed as amitriptyline-b-2-NB590
[9] = tracer at 1μM, listed as amitriptyline-b-2-NB590

T7 sequence (P35346 whole entry): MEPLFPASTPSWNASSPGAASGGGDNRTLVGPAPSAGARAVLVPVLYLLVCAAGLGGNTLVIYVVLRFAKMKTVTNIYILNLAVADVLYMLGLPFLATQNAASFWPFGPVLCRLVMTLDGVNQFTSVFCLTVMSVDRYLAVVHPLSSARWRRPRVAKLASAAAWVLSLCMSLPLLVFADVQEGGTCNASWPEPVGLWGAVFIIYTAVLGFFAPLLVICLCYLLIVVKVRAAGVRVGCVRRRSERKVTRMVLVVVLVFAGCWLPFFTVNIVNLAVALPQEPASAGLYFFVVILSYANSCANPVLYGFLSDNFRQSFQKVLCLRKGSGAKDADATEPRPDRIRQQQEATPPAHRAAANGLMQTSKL
T6 sequence (Q8WXD0 whole entry): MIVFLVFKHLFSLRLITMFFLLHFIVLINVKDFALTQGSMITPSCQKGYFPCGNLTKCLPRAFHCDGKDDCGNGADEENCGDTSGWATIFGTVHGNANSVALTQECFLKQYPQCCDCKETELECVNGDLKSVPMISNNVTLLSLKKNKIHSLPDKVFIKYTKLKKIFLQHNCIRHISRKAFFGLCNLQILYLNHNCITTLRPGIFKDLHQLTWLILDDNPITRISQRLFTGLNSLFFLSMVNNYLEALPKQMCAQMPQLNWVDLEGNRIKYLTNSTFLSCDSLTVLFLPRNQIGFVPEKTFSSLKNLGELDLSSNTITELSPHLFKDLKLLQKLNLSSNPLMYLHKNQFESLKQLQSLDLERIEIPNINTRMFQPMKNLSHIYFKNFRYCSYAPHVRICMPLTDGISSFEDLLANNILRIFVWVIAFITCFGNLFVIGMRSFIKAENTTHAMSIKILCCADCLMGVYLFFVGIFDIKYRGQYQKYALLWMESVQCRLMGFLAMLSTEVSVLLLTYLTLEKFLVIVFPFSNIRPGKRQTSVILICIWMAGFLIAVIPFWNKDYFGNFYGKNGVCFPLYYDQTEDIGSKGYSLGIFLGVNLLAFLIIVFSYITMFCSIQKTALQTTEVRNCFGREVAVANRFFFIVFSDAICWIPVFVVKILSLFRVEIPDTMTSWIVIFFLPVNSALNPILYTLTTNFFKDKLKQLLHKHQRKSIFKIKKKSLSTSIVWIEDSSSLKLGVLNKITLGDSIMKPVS
T5 sequence (Q99705 whole entry): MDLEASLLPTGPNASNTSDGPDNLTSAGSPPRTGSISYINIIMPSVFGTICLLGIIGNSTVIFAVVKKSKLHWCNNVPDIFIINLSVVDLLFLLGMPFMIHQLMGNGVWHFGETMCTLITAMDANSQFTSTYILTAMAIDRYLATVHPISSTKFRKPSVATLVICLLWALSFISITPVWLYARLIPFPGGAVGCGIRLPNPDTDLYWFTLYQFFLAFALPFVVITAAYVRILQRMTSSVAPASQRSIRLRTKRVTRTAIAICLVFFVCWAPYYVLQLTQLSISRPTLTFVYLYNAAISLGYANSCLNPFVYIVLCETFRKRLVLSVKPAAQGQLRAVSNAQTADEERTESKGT
T1 sequence (P51582 whole entry): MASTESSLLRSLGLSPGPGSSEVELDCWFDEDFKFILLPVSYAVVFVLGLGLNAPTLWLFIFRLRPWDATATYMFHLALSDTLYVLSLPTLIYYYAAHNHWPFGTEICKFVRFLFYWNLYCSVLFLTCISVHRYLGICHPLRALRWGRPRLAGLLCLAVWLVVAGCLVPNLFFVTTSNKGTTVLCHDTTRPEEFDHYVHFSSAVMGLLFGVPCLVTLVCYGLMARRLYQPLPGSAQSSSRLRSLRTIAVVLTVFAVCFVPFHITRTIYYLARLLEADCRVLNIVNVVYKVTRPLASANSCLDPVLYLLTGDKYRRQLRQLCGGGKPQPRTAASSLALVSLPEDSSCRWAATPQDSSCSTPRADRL
T4 sequence (P41597 whole entry): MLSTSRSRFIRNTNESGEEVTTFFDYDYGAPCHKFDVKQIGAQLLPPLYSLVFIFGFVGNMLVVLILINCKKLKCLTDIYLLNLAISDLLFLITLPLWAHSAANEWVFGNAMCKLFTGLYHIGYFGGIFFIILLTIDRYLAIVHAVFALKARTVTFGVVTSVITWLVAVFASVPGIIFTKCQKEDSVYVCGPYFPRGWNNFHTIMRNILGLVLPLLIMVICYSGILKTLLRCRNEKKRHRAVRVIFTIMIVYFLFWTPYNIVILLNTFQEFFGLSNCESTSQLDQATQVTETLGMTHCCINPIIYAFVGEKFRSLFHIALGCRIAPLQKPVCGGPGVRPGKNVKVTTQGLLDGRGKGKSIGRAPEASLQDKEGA

Compound	NanoBRET Fold Response ([1]; P2RY4, tracer 0.1μM)	NanoBRET Fold Response ([1]; P2RY4, tracer 1μM)	NanoBRET Fold Response ([2]; AGTR1, tracer 0.1μM)	NanoBRET Fold Response ([2]; AGTR1, tracer 1μM)	NanoBRET Fold Response ([3]; PTGDR2, tracer 0.1μM)	NanoBRET Fold Response ([3]; PTGDR2, tracer 1μM)	NanoBRET Fold Response ([4]; CCR2, tracer 0.1μM)	NanoBRET Fold Response ([4]; CCR2, tracer 1μM)	NanoBRET Fold Response ([5]; MCHR1, tracer 0.1μM)	NanoBRET Fold Response ([5]; MCHR1, tracer 1μM)	NanoBRET Fold Response ([6]; RXFP2, tracer 0.1μM)	NanoBRET Fold Response ([7]; SSTR5, tracer 0.1μM)	NanoBRET Fold Response ([7]; SSTR5, tracer 1μM)	NanoBRET Fold Response ([6]; RXFP2, tracer 1μM)	NanoBRET Fold Response ([4]; tracer at 1μM)	further results
Cc1nc2n(c(=O)c1CCN1CCC(c3noc4cc(F)ccc34)CC1)CCCC2OC(=O)NCCOCCOCCOCCOCCNC(=O)CCc1ccc2n1[B-](F)(F)[N+]1=C(c3ccc[nH]3)C=CC1=C2 (centres unmarked) [Risperidone-2-NB590]	1.08	0.90	0.99	0.98	0.99	0.96	1.01	1.16	0.94	0.97	1.20	1.01	1.02	–	–	–
CCOC(=O)c1cc(C#N)c(N2CCC(C(=O)NS(=O)(=O)Cc3ccccc3/C=C/C(=O)NCCNC(=O)CCc3ccc4n3[B-](F)(F)[N+]3=C(c5ccc[nH]5)C=CC3=C4)CC2)nc1C [AZD1283-1-NB590]	–	–	–	–	–	–	–	–	–	–	–	–	–	–	–	NanoBRET Fold Response ([1]; P2RY4, 0.1μM): 1.05; NanoBRET Fold Response ([1]; P2RY4, 1μM): 1.12; NanoBRET Fold Response ([2]; AGTR1, 0.1μM): 1.01; NanoBRET Fold Response ([2]; AGTR1, 1μM): 1.05; NanoBRET Fold Response ([3]; PTGDR2, 0.1μM): 1.07; NanoBRET Fold Response ([3]; PTGDR2, 1μM): 1.03; NanoBRET Fold Response ([4]; CCR2, 0.1μM): 0.93; NanoBRET Fold Response ([4]; CCR2, 1μM): 1.04; NanoBRET Fold Response ([5]; MCHR1, 0.1μM): 1.00; NanoBRET Fold Response ([5]; MCHR1, 1μM): 1.08; NanoBRET Fold Response ([6]; RXFP2, 0.1μM): 1.25; NanoBRET Fold Response ([6]; RXFP2, 1μM): 1.29; NanoBRET Fold Response ([7]; SSTR5, 0.1μM): 1.09; NanoBRET Fold Response ([7]; SSTR5, 1μM): 1.05
Cc1cc2c(s1)Nc1ccccc1N=C2N1CCN(CCCNC(=O)CCOCCOCCOCCOCCNC(=O)CCc2ccc3n2[B-](F)(F)[N+]2=C(c4ccc[nH]4)C=CC2=C3)CC1 [Olanzapine-a-2-NB590]	1.07	0.95	0.94	0.95	0.97	0.96	1.00	0.59	1.04	1.13	0.27	1.01	1.02	0.46	–	–
COc1ccccc1N1CCN(CCCCN2C(=O)c3ccc(CNC(=O)CCOCCNC(=O)c4ccc(CNC(=O)CCc5ccc6n5[B-](F)(F)[N+]5=C(c7ccc[nH]7)C=CC5=C6)cc4)cc3C2=O)CC1 [NAN-190-3-NB590]	0.86	0.82	0.92	1.04	0.87	0.85	0.82	0.94	1.20	0.86	0.63	1.02	1.03	0.89	–	–
CC(C)N(CC[C@H](c1ccccc1)c1cc(CCNC(=O)CCOCCOCCOCCOCCNC(=O)CCc2ccc3n2[B-](F)(F)[N+]2=C(c4ccc[nH]4)C=CC2=C3)ccc1O)C(C)C [Tolterodine-2-NB590]	1.08	0.94	1.12	1.00	0.95	0.99	1.20	0.98	1.18	0.95	1.11	0.93	1.04	1.30	–	–
CN(C)CCC=C1c2ccccc2CCc2ccc(C(=O)NCCNC(=O)CCOCCOCCOCCOCCNC(=O)CCc3ccc4n3[B-](F)(F)[N+]3=C(c5ccc[nH]5)C=CC3=C4)cc21 [Amitriptyline-b-2-NB590]	–	–	–	–	–	–	–	–	–	–	–	–	–	–	0.89	NanoBRET Fold Response [1, 8]: 1.07; NanoBRET Fold Response [2, 8]: 1.12; NanoBRET Fold Response [2, 9]: 0.81; NanoBRET Fold Response ([3]; tracer at 0.1μM): 1.00; NanoBRET Fold Response ([3]; tracer at 1μM): 1.00; NanoBRET Fold Response ([4]; tracer at 0.1μM): 0.99; NanoBRET Fold Response [5, 8]: 0.79; NanoBRET Fold Response [5, 9]: 1.01; NanoBRET Fold Response ([6]; tracer at 0.1μM): 1.09; NanoBRET Fold Response ([6]; tracer at 1μM): 1.34; NanoBRET Fold Response [7, 8]: 0.96; NanoBRET Fold Response ([7]; tracer at 1μM): 0.97
CN(C)CCC=C1c2ccccc2CCc2ccc(C(=O)NCCNC(=O)CCOCCOCCOCCOCCNC(=O)CCc3ccc4n3[B-](F)(F)[N+]3=C(c5ccc[nH]5)C=CC3=C4)cc21 [Amitriptyline-a-2-NB590]	–	–	–	–	–	–	–	–	–	–	–	–	–	–	1.05	NanoBRET Fold Response ([1]; tracer at 0.1μM): 1.01; NanoBRET Fold Response ([1]; tracer at 1μM): 1.02; NanoBRET Fold Response ([2]; tracer at 0.1μM): 1.04; NanoBRET Fold Response ([2]; tracer at 1μM): 1.00; NanoBRET Fold Response ([4]; tracer at 0.1μM): 1.19; NanoBRET Fold Response ([5]; tracer at 0.1μM): 1.01; NanoBRET Fold Response ([5]; tracer at 1μM): 1.09; NanoBRET Fold Response ([7]; tracer at 0.1μM): 1.00; NanoBRET Fold Response ([7]; tracer at 1μM): 1.05
CN(CCC=C1c2ccccc2CCc2ccccc21)C(=O)CCOCCOCCOCCOCCNC(=O)CCc1ccc2n1[B-](F)(F)[N+]1=C(c3ccc[nH]3)C=CC1=C2 [Amitriptyline-e-2-NB590]	–	–	–	–	–	–	–	–	–	–	–	–	–	–	0.90	NanoBRET Fold Response ([1]; tracer at 1μM): 1.04; NanoBRET Fold Response ([2]; tracer at 1μM): 1.02
